What was measured:
DHY-SC-VUT5 = test system: T1, DHY-SC-VUT5; assay: NADH formation at […] nm, Michaelis-Menten fit (GraphPad Prism); assay type: biochemical, uncultured bacterium; conditions: 50 mM NAD+, 50 mM Tris-HCl pH 8.0, 30 °C; hexanal 25-200 mM
T1 construct: codon-optimised synthetic gene in pET-30a(+) (NdeI/HindIII), C-terminal 6xHis kept, E. coli BL21(DE3), Ni-NTA purified, ~51 kDa band

DHY-G-VUT7 = test system: T2, DHY-G-VUT7; assay: as above; assay type: biochemical, metagenome: hydrocarbon contaminated soil; conditions: 50 mM NAD+, 50 mM Tris-HCl pH 8.0, 30 °C; hexanal 25-200 mM
T2 construct: codon-optimised synthetic gene in pET-30a(+) (NdeI/HindIII), C-terminal 6xHis kept, E. coli BL21(DE3), Ni-NTA purified, ~67 kDa band

Question: What does the source list for `CCCCCC=O` [hexanal]?
Answer: Km (DHY-SC-VUT5): 13.8 mM; Km (DHY-G-VUT7): 2.83 mM
